These results are taken from US11149037B2, “Pyrazole MAGL inhibitors” (H. Lundbeck A/S, priority 2017, dated 2021).

Assay [1] has as its target FAAH (Mus musculus (Mouse), UniProt O08914). Description: In vitro competitive activity-based protein profiling, mouse proteomes (brain membrane fraction or cell lysates). The format is biochemical. Particulars: mouse proteome, read-out: FAAH % inh. 1 μM (mouse). An outline of the steps:
(§1)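 Activity of MAGL and FAAH was quantified from fluorescent gel band intensities. Beforehand, inhibitors at several concentrations competed against subsequent probe labelling (FP-Rh, JW912 or HT-01) in species-matched proteomes, each step 30 min at 37° C.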

Assay [2] deals with T1, MAGL (Mus musculus (Mouse), UniProt O35678). The assay is described as above. It counts as biochemical. Particulars: mouse proteome, read-out: MAGL % inh. 1 μM (mouse). An outline of the steps:
as §1

Assay [3] deals with FAAH (Homo sapiens (Human), UniProt O00519). Kind of assay: In vitro competitive activity-based protein profiling, human proteomes (prefrontal cortex or PC3 cell membrane fractions). The following applies: human proteome; for inhibition at 1 µM: read-out: FAAH % inh. 1 μM (human). The format is biochemical. In outline:
as §1

Assay [4] addresses MAGL (Homo sapiens (Human), UniProt Q99685). Described as above. The format is biochemical. The following applies: human proteome; for inhibition at 1 µM: read-out: MAGL % inh. 1 μM (human). In outline: as §1
The target in assay [5] is T1, MAGL. Kind of assay: Mouse brain proteomes from inhibitor treated mice (oral gavage, sacrificed 4 h after administration). It counts as in vivo. Particulars: 5 mg/kg oral gavage. The method, then:
Preparation of Mouse Brain Proteomes from Inhibitor Treated Mice.
Inhibitors were administered to wild-type C57B1/6J by oral gavage in a vehicle of polyethylene glycol. Each animal was sacrificed 4 h following administration and brain proteomes were prepared and analyzed according to previously established methods (See Niphakis, M. J., et al. (2011) ACS Chem. Neurosci. and Long, J. Z., et al. Nat. Chem. Biol. 5:37-44).

FAAH (Mus musculus (Mouse), UniProt O08914), sequence (O08914 whole entry): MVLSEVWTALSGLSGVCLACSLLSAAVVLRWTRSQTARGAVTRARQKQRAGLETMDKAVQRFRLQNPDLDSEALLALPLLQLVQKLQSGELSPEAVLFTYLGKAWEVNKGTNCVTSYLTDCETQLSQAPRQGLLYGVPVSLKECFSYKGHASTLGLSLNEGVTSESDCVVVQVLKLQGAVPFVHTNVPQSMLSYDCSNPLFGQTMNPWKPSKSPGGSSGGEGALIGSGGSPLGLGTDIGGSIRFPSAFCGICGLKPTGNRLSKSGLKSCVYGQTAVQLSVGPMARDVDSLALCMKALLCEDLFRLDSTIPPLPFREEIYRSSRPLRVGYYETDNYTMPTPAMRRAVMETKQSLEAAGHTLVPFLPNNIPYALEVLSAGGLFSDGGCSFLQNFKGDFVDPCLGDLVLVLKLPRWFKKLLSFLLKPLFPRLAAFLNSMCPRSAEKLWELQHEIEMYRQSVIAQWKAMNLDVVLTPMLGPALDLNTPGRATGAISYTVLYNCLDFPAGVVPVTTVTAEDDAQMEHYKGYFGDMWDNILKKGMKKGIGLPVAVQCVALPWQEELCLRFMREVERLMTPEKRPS
FAAH (Homo sapiens (Human), UniProt O00519), sequence (O00519 whole entry): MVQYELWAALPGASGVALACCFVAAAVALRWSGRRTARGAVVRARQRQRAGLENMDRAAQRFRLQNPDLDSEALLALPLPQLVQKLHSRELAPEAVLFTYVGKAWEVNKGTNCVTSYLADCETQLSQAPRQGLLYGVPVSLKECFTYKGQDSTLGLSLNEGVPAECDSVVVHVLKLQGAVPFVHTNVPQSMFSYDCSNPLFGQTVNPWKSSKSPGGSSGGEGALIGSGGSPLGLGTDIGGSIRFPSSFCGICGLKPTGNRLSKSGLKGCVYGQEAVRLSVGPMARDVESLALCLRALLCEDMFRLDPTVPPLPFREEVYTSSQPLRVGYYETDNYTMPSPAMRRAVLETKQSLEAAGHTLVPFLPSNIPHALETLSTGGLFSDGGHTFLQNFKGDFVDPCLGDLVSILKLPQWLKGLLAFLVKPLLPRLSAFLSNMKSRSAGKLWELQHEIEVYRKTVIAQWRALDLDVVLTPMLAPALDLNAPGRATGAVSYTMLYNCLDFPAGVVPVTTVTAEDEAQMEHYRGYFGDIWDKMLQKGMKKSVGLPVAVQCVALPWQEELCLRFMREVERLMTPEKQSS
T1 sequence (O35678 whole entry): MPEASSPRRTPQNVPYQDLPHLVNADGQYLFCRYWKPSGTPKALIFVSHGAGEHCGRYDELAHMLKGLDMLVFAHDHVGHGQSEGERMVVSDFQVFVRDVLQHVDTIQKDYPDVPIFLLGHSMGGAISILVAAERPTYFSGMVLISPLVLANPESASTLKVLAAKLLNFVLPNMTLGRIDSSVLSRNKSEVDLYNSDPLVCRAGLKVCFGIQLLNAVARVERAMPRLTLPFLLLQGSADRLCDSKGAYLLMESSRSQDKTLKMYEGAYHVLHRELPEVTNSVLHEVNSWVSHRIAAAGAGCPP
MAGL (Homo sapiens (Human), UniProt Q99685), sequence (Q99685 whole entry): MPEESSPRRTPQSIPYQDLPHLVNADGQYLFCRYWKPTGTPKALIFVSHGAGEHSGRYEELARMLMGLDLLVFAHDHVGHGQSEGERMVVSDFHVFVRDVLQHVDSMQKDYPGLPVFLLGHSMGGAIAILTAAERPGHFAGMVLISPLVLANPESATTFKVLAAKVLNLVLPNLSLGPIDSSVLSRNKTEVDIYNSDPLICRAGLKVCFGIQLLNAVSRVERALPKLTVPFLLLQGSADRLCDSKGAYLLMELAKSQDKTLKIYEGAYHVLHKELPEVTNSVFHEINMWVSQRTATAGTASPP

In the case of `CS(=O)(=O)Nc1ccn(C(=O)N2CC3CN(Cc4ccc(Cl)c(N5CC6COCC6C5)c4)CC3C2)n1` (stereo not shown) [Example 140, N-(1-(5-(4-chloro-3-(Tetrahydro-1H-furo[3,4-c]pyrrol-5(3H)-yl)benzyl)octahydropyrrolo[3,4-c]pyrrole-2-carbonyl)-1H-pyrazol-3-yl)methanesulfonamide], the inhibition at 1 µM is 0 to 25% on FAAH [1], 0 to 25% at MAGL [2], 0 to 25% on FAAH [3] and 25 to 50% on MAGL [4].
With `C[C@@H]1CN(Cc2ccc(Cl)c(N3CCC(F)CC3)c2)CCN1C(=O)n1ccc(NS(C)(=O)=O)n1` [Example 142, (R)-N-(1-(4-(4-Chloro-3-(4-fluoropiperidin-1-yl)benzyl)-2-methylpiperazine-1-carbonyl)-1H-pyrazol-3-yl)methanesulfonamide], the inhibition at 1 µM at FAAH [1] was 0 to 25%; on MAGL [2], above 75%; at FAAH [3] it was 0 to 25%; at MAGL [4] it was above 75%.
With `CC(=O)Nc1ccn(C(=O)N2CCN(Cc3cc(Cl)cc(Cl)c3)CC2)n1` [Example 144, N-(1-(4-(3,5-Dichlorobenzyl)piperazine-1-carbonyl)-1H-pyrazol-3-yl)acetamide], the inhibition at 1 µM on FAAH [1] was 0 to 25%; on MAGL [2], above 75%; at FAAH [3] it was 0 to 25%; on MAGL [4], above 75%.
For `CC(=O)Nc1ccn(C(=O)N2CC3CN(Cc4cc(F)cc(Cl)c4)CC3C2)n1` (stereo not shown) [Example 145, N-(1-(5-(3-Chloro-5-fluorobenzyl)octahydropyrrolo[3,4-c]pyrrole-2-carbonyl)-1H-pyrazol-3-yl)acetamide], the inhibition at 1 µM at FAAH [1], on MAGL [2], at FAAH [3] and on MAGL [4] was above 75% each time. The figures for the IC50 at FAAH [3] and at MAGL [4] were 0.1 to 1 µM and below 0.1 µM, respectively.
For `CC(=O)Nc1ccn(C(=O)N2CC3CN(Cc4cc(Cl)cc(C(F)(F)F)c4)CC3C2)n1` (stereo not shown) [Example 146, N-(1-(5-(3-Chloro-5-(trifluoromethyl)benzyl)octahydropyrrolo[3,4-c]pyrrole-2-carbonyl)-1H-pyrazol-3-yl)acetamide], the inhibition at 1 µM on FAAH [1], on MAGL [2], on FAAH [3] and on MAGL [4] was above 75% each time. Also, the half-inhibitory concentration (IC50) – broadly, the midpoint of a concentration-inhibition curve – was 1 to 10 µM on FAAH [3] and below 0.1 µM on MAGL [4].
Consider `CS(=O)(=O)Nc1ccn(C(=O)N2CCN(Cc3ccc(Cl)c(N4CCC(F)(F)CC4)c3)CC2)n1` [Example 147, N-(1-(4-(4-Chloro-3-(4,4-difluoropiperidin-1-yl)benzyl)piperazine-1-carbonyl)-1H-pyrazol-3-yl)methanesulfonamide], for which the inhibition at 1 µM at FAAH [1] was 0 to 25%; at MAGL [2] it was above 75%; at FAAH [3] it was 0 to 25%; on MAGL [4], above 75%.
Consider `CS(=O)(=O)Nc1ccn(C(=O)N2CCN(Cc3cccc(Oc4ccc(Cl)cc4)c3)CC2)n1` [Example 149, N-(1-(4-(3-(4-Chlorophenoxy)benzyl)piperazine-1-carbonyl)-1H-pyrazol-3-yl)methanesulfonamide], for which the inhibition at 1 µM at FAAH [1], at MAGL [2], at FAAH [3] and on MAGL [4] was above 75% in each case. Moreover, the IC50 was 0.1 to 1 µM at FAAH [3] and below 0.1 µM on MAGL [4].
For the compound `C[C@H]1CCCN1c1cc(CN2CCN(C(=O)n3ccc(NS(C)(=O)=O)n3)CC2)ccc1C(F)(F)F` [Example 151, (S)-N-(1-(4-(3-(2-Methylpyrrolidin-1-yl)-4-(trifluoromethyl)benzyl)piperazine-1-carbonyl)-1H-pyrazol-3-yl)methanesulfonamide], the inhibition at 1 µM at FAAH [1] is 0 to 25%; on MAGL [2] it was above 75%; at FAAH [3], 0 to 25%; at MAGL [4], above 75%.
For the compound `CCN1CC2CN(c3cc(CN4CCN(C(=O)n5ccc(NS(C)(=O)=O)n5)CC4)ccc3Cl)CC2C1` (stereo not shown) [Example 153, N-(1-(4-(4-Chloro-3-(5-ethylhexahydropyrrolo[3,4-c]pyrrol-2(1H)-yl)benzyl)piperazine-1-carbonyl)-1H-pyrazol-3-yl)methanesulfonamide], the inhibition at 1 µM is 0 to 25% at FAAH [1], 50 to 75% at MAGL [2], 0 to 25% at FAAH [3] and above 75% on MAGL [4].
`CC(=O)Nc1ccn(C(=O)N2CCC3(CCCN3C(=O)c3cc4ccc(C(F)(F)F)cc4s3)CC2)n1` [Example 155, N-(1-(1-(6-(Trifluoromethyl)benzo[b]thiophene-2-carbonyl)-1,8-diazaspiro[4.5]decane-8-carbonyl)-1H-pyrazol-3-yl)acetamide]: the inhibition at 1 µM is above 75% on FAAH [1], above 75% at MAGL [2], 0 to 25% at FAAH [3] and above 75% on MAGL [4].
On to `CS(=O)(=O)Nc1ccn(C(=O)N2CCC3(CCN(Cc4ccc(N5CC6COCC6C5)c(Cl)c4)C3)CC2)n1` (stereo not shown) [Example 160, N-(1-(2-(3-Chloro-4-(tetrahydro-1H-furo[3,4-c]pyrrol-5(3H)-yl)benzyl)-2,8-diazaspiro[4.5]decane-8-carbonyl)-1H-pyrazol-3-yl)methanesulfonamide], for which the inhibition at 1 µM at FAAH [1] lay within 0 to 25%; on MAGL [2] it was 0 to 25%; on FAAH [3], 25 to 50%; at MAGL [4], 50 to 75%.
In the case of `CS(=O)(=O)Nc1ccn(C(=O)N2CCC3(CCN(Cc4ccccc4Cl)C3)CC2)n1` [Example 162, N-(1-(2-(2-Chlorobenzyl)-2,8-diazaspiro[4.5]decane-8-carbonyl)-1H-pyrazol-3-yl)methanesulfonamide], the inhibition at 1 µM on FAAH [1] was 0 to 25%; at MAGL [2], 0 to 25%; on FAAH [3], 0 to 25%; at MAGL [4], above 75%.
For `CS(=O)(=O)Nc1ccn(C(=O)N2CCC3(CCN(Cc4cccc(Cl)c4)C3)CC2)n1` [Example 163, N-(1-(2-(3-Chlorobenzyl)-2,8-diazaspiro[4.5]decane-8-carbonyl)-1H-pyrazol-3-yl)methanesulfonamide], the inhibition at 1 µM at FAAH [1] is 0 to 25%; on MAGL [2], 0 to 25%; at FAAH [3] it was 0 to 25%; on MAGL [4] it was above 75%.
Take `CS(=O)(=O)Nc1ccn(C(=O)N2CCC3(CCN(Cc4ccc(Cl)cc4)C3)CC2)n1` [Example 164, N-(1-(2-(4-Chlorobenzyl)-2,8-diazaspiro[4.5]decane-8-carbonyl)-1H-pyrazol-3-yl)methanesulfonamide]: the inhibition at 1 µM at FAAH [1] was 0 to 25%; on MAGL [2] it was 0 to 25%; on FAAH [3], 0 to 25%; at MAGL [4] it was above 75%.
Take `CC(=O)Nc1ccn(C(=O)N2CC3CN(Cc4cc(N5CCOCC5)cc(C(F)(F)F)c4)CC3C2)n1` (stereo not shown) [Example 166, N-(1-(5-(3-Morpholino-5-(trifluoromethyl)benzyl)octahydropyrrolo[3,4-c]pyrrole-2-carbonyl)-1H-pyrazol-3-yl)acetamide]: the inhibition at 1 µM at FAAH [1] is above 75%; on MAGL [2], above 75%; on FAAH [3] it was 0 to 25%; on MAGL [4], above 75%.
With `CC(=O)Nc1ccn(C(=O)N2CC3CN(Cc4cc(Cl)cc(N5CCOCC5)c4)CC3C2)n1` (stereo not shown) [Example 167, N-(1-(5-(3-Chloro-5-morpholinobenzyl)octahydropyrrolo[3,4-c]pyrrole-2-carbonyl)-1H-pyrazol-3-yl)acetamide], the inhibition at 1 µM is above 75% at FAAH [1], above 75% on MAGL [2], 25 to 50% at FAAH [3] and above 75% on MAGL [4].
For the compound `CC(=O)Nc1ccn(C(=O)N2CC3CN(Cc4cc(Cl)cc(N5CCCC5)c4)CC3C2)n1` (stereo not shown) [Example 172, N-(1-(5-(3-Chloro-5-(pyrrolidin-1-yl)benzyl)octahydropyrrolo[3,4-c]pyrrole-2-carbonyl)-1H-pyrazol-3-yl)acetamide], the inhibition at 1 µM at FAAH [1] and at MAGL [2] was above 75% each time. Further, the IC50 is 0.1 to 1 µM on FAAH [3] and below 0.1 µM at MAGL [4].
Regarding `CC(=O)Nc1ccn(C(=O)N2CC3CN(Cc4cccc(Oc5ccccc5)c4)CC3C2)n1` (stereo not shown) [Example 173, N-(1-(5-(3-Phenoxybenzyl)octahydropyrrolo[3,4-c]pyrrole-2-carbonyl)-1H-pyrazol-3-yl)acetamide], the inhibition at 1 µM at FAAH [1] and at MAGL [2] was above 75% throughout. In addition, the results for the IC50 on FAAH [3] and at MAGL [4] were 0.1 to 1 µM and below 0.1 µM, respectively.
As to `CC(=O)Nc1ccn(C(=O)N2CCC3(CCN(Cc4cc(F)cc(Cl)c4)C3)CC2)n1` [Example 176, N-(1-(2-(3-Chloro-5-fluorobenzyl)-2,8-diazaspiro[4.5]decane-8-carbonyl)-1H-pyrazol-3-yl)acetamide], the inhibition at 1 µM on MAGL [2] and on MAGL [4] was above 75% in each case. At MAGL [4], this compound displayed an IC50 below 0.1 µM. Further, at MAGL [5], the “MAGL % inh. 5 mg/kg (mouse)” value was “A (% inhibition is greater than or equal to 75%)”.
